Assay results as given in PubChem BioAssay (NCI).
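48-hour exposure; five concentrations; linearly interpolated endpoints. TGI is the concentration that stops growth completely.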

Key:
Assay in all cases: NCI anticancer screen, dose series, 48 h
HCC-2998 colon = tested on: HCC-2998 colon
NCI/ADR-RES ovarian = tested on: NCI/ADR-RES ovarian
RPMI-8226 leukemia = tested on: RPMI-8226 leukemia
U251 CNS = tested on: U251 CNS
OVCAR-3 ovarian = tested on: OVCAR-3 ovarian
IGROV1 ovarian = tested on: IGROV1 ovarian
SK-MEL-28 melanoma = tested on: SK-MEL-28 melanoma
ACHN renal = tested on: ACHN renal
SF-268 CNS = tested on: SF-268 CNS
MDA-N = tested on: MDA-N
RXF 393 renal = tested on: RXF 393 renal
MALME-3M melanoma = tested on: MALME-3M melanoma
HOP-62 NSCLC = tested on: HOP-62 NSCLC
SN12C renal = tested on: SN12C renal
NCI-H226 lung = tested on: NCI-H226 lung
HS 578T breast = tested on: HS 578T breast
SF-539 CNS = tested on: SF-539 CNS
LOX IMVI melanoma = tested on: LOX IMVI melanoma
SNB-19 CNS = tested on: SNB-19 CNS
A498 renal = tested on: A498 renal

C[C@]12CCC(=O)C=C1CC[C@@H]1[C@@H]2CC[C@]2(C)C(=O)/C(=C/c3ccncc3)C[C@@H]12
TGI (HCC-2998 colon): 30.9 µM
TGI (NCI/ADR-RES ovarian): > 100 µM
TGI (RPMI-8226 leukemia): 35.2 µM
TGI (U251 CNS): 25.7 µM
TGI (OVCAR-3 ovarian): 27.1 µM
TGI (IGROV1 ovarian): 61.9 µM
TGI (SK-MEL-28 melanoma): 45 µM
TGI (ACHN renal): 30.5 µM
TGI (SF-268 CNS): 45 µM
TGI (MDA-N): 54.3 µM
TGI (RXF 393 renal): 31.4 µM
TGI (MALME-3M melanoma): 33.8 µM
TGI (HOP-62 NSCLC): 32.5 µM
TGI (SN12C renal): 39.4 µM
TGI (NCI-H226 lung): 34.6 µM
TGI (HS 578T breast): > 100 µM
TGI (SF-539 CNS): 46.1 µM
TGI (LOX IMVI melanoma): 30.8 µM
TGI (SNB-19 CNS): 26.8 µM

CCOC(=O)c1ccc(OCc2nc3cc(C(F)(F)F)ccc3nc2-c2ccccc2)cc1
TGI (HCC-2998 colon): > 100 µM
TGI (NCI/ADR-RES ovarian): > 100 µM
TGI (RPMI-8226 leukemia): > 100 µM
TGI (U251 CNS): > 100 µM
TGI (OVCAR-3 ovarian): > 100 µM
TGI (IGROV1 ovarian): > 100 µM
TGI (SK-MEL-28 melanoma): > 100 µM
TGI (ACHN renal): > 100 µM
TGI (SF-268 CNS): > 100 µM
TGI (MDA-N): > 100 µM
TGI (RXF 393 renal): > 100 µM
TGI (HOP-62 NSCLC): > 100 µM
TGI (SN12C renal): > 100 µM
TGI (NCI-H226 lung): > 100 µM
TGI (HS 578T breast): > 100 µM
TGI (SF-539 CNS): > 100 µM
TGI (A498 renal): > 100 µM
TGI (LOX IMVI melanoma): > 100 µM
TGI (SNB-19 CNS): > 100 µM

O=C1C(=Cc2cccc(Cl)c2)N=C(c2ccccc2)N1n1c(-c2ccccc2)nc2ccccc2c1=O
TGI (HCC-2998 colon): > 100 µM
TGI (NCI/ADR-RES ovarian): > 100 µM
TGI (RPMI-8226 leukemia): > 100 µM
TGI (U251 CNS): > 100 µM
TGI (OVCAR-3 ovarian): > 100 µM
TGI (IGROV1 ovarian): > 100 µM
TGI (SK-MEL-28 melanoma): > 100 µM
TGI (ACHN renal): > 100 µM
TGI (SF-268 CNS): > 100 µM
TGI (MDA-N): > 100 µM
TGI (RXF 393 renal): > 100 µM
TGI (MALME-3M melanoma): > 100 µM
TGI (HOP-62 NSCLC): 99.8 µM
TGI (SN12C renal): > 100 µM
TGI (NCI-H226 lung): > 100 µM
TGI (HS 578T breast): > 100 µM
TGI (SF-539 CNS): > 100 µM
TGI (LOX IMVI melanoma): > 100 µM
TGI (SNB-19 CNS): > 100 µM

COc1c(C(=O)/C(=N/Nc2cccc(Cl)c2)C(C)=O)c(O)c(OC)c2occc12
TGI (HCC-2998 colon): > 100 µM
TGI (NCI/ADR-RES ovarian): > 100 µM
TGI (RPMI-8226 leukemia): > 100 µM
TGI (U251 CNS): > 100 µM
TGI (OVCAR-3 ovarian): > 100 µM
TGI (IGROV1 ovarian): > 100 µM
TGI (SK-MEL-28 melanoma): > 100 µM
TGI (ACHN renal): > 100 µM
TGI (SF-268 CNS): > 100 µM
TGI (MDA-N): > 100 µM
TGI (RXF 393 renal): > 100 µM
TGI (MALME-3M melanoma): > 100 µM
TGI (HOP-62 NSCLC): > 100 µM
TGI (SN12C renal): > 100 µM
TGI (NCI-H226 lung): > 100 µM
TGI (HS 578T breast): > 100 µM
TGI (SF-539 CNS): > 100 µM
TGI (LOX IMVI melanoma): > 100 µM
TGI (SNB-19 CNS): > 100 µM

Cn1cc(S(=O)(=O)NC(=O)Nc2ccc(Cl)cc2)c(=O)c2ccc(Cl)cc21
TGI (HCC-2998 colon): > 100 µM
TGI (NCI/ADR-RES ovarian): > 100 µM
TGI (U251 CNS): > 100 µM
TGI (OVCAR-3 ovarian): > 100 µM
TGI (IGROV1 ovarian): > 100 µM
TGI (SK-MEL-28 melanoma): > 100 µM
TGI (ACHN renal): > 100 µM
TGI (SF-268 CNS): > 100 µM
TGI (MDA-N): > 100 µM
TGI (RXF 393 renal): > 100 µM
TGI (MALME-3M melanoma): > 100 µM
TGI (HOP-62 NSCLC): > 100 µM
TGI (SN12C renal): > 100 µM
TGI (NCI-H226 lung): > 100 µM
TGI (HS 578T breast): > 100 µM
TGI (SF-539 CNS): > 100 µM
TGI (LOX IMVI melanoma): > 100 µM
TGI (SNB-19 CNS): > 100 µM

O=C1c2ccccc2-c2nc(-c3cccs3)cc3c2c1nc1ccccc13
TGI (HCC-2998 colon): 68 µM
TGI (NCI/ADR-RES ovarian): > 100 µM
TGI (RPMI-8226 leukemia): > 100 µM
TGI (U251 CNS): > 100 µM
TGI (OVCAR-3 ovarian): 9.39 µM
TGI (IGROV1 ovarian): 92.5 µM
TGI (SK-MEL-28 melanoma): 36.8 µM
TGI (ACHN renal): > 100 µM
TGI (SF-268 CNS): 56.8 µM
TGI (MDA-N): 20.4 µM
TGI (MALME-3M melanoma): 23.1 µM
TGI (HOP-62 NSCLC): 77.6 µM
TGI (SN12C renal): > 100 µM
TGI (NCI-H226 lung): > 100 µM
TGI (HS 578T breast): 90 µM
TGI (SF-539 CNS): > 100 µM
TGI (LOX IMVI melanoma): 35.9 µM
TGI (SNB-19 CNS): > 100 µM

CCCCCCCCCCCCCCCCC(=O)NCC(=O)NCC(=O)NC(Cc1ccccc1)C(=O)Oc1ccc([N+](=O)[O-])cc1 (stereo not given)
TGI (HCC-2998 colon): 37.3 µM
TGI (NCI/ADR-RES ovarian): 42.9 µM
TGI (RPMI-8226 leukemia): 58.2 µM
TGI (U251 CNS): 43.3 µM
TGI (OVCAR-3 ovarian): > 100 µM
TGI (IGROV1 ovarian): > 100 µM
TGI (SK-MEL-28 melanoma): 30.3 µM
TGI (ACHN renal): > 100 µM
TGI (SF-268 CNS): 50.4 µM
TGI (MDA-N): > 100 µM
TGI (RXF 393 renal): 46.6 µM
TGI (HOP-62 NSCLC): > 100 µM
TGI (SN12C renal): 34.6 µM
TGI (NCI-H226 lung): 70 µM
TGI (HS 578T breast): > 100 µM
TGI (SF-539 CNS): 46.8 µM
TGI (A498 renal): > 100 µM
TGI (LOX IMVI melanoma): 38.7 µM

S=C(Nc1ccc(Cl)cc1)c1ccc(CN2CCCCC2)s1
TGI (HCC-2998 colon): 21.6 µM
TGI (NCI/ADR-RES ovarian): > 100 µM
TGI (RPMI-8226 leukemia): 20.2 µM
TGI (U251 CNS): > 100 µM
TGI (OVCAR-3 ovarian): > 100 µM
TGI (IGROV1 ovarian): 8.82 µM
TGI (SK-MEL-28 melanoma): 37.2 µM
TGI (ACHN renal): 60.2 µM
TGI (SF-268 CNS): > 100 µM
TGI (MDA-N): 16.8 µM
TGI (SN12C renal): 39.2 µM
TGI (HS 578T breast): > 100 µM
TGI (SF-539 CNS): > 100 µM
TGI (A498 renal): 29 µM
TGI (LOX IMVI melanoma): 6.14 µM

CSc1ccc(/C=C/C(=O)c2nc3ccccc3[nH]2)cc1
TGI (HCC-2998 colon): 23.7 µM
TGI (NCI/ADR-RES ovarian): 64.1 µM
TGI (RPMI-8226 leukemia): 13.4 µM
TGI (OVCAR-3 ovarian): 40.5 µM
TGI (IGROV1 ovarian): > 100 µM
TGI (SK-MEL-28 melanoma): > 100 µM
TGI (ACHN renal): 43.2 µM
TGI (SF-268 CNS): 93.6 µM
TGI (MDA-N): > 100 µM
TGI (MALME-3M melanoma): > 100 µM
TGI (HOP-62 NSCLC): 82.1 µM
TGI (SN12C renal): > 100 µM
TGI (NCI-H226 lung): 56.9 µM
TGI (HS 578T breast): > 100 µM
TGI (SF-539 CNS): > 100 µM
TGI (A498 renal): 41.2 µM
TGI (LOX IMVI melanoma): 45.9 µM
TGI (SNB-19 CNS): 49.4 µM

CCOP(=O)(OCC)c1cc2cc(O)ccc2oc1=O
TGI (HCC-2998 colon): > 100 µM
TGI (NCI/ADR-RES ovarian): > 100 µM
TGI (RPMI-8226 leukemia): > 100 µM
TGI (U251 CNS): > 100 µM
TGI (OVCAR-3 ovarian): > 100 µM
TGI (IGROV1 ovarian): > 100 µM
TGI (SK-MEL-28 melanoma): > 100 µM
TGI (ACHN renal): > 100 µM
TGI (SF-268 CNS): > 100 µM
TGI (MDA-N): > 100 µM
TGI (RXF 393 renal): > 100 µM
TGI (HOP-62 NSCLC): > 100 µM
TGI (SN12C renal): > 100 µM
TGI (NCI-H226 lung): > 100 µM
TGI (HS 578T breast): > 100 µM
TGI (SF-539 CNS): > 100 µM
TGI (A498 renal): > 100 µM
TGI (LOX IMVI melanoma): > 100 µM
TGI (SNB-19 CNS): > 100 µM

CC(=O)N(CN1C(=O)CCC1C(=O)O)c1ccc(C)cc1 (stereo not given)
TGI (HCC-2998 colon): > 100 µM
TGI (NCI/ADR-RES ovarian): > 100 µM
TGI (RPMI-8226 leukemia): > 100 µM
TGI (U251 CNS): > 100 µM
TGI (OVCAR-3 ovarian): > 100 µM
TGI (IGROV1 ovarian): > 100 µM
TGI (SK-MEL-28 melanoma): > 100 µM
TGI (ACHN renal): > 100 µM
TGI (SF-268 CNS): > 100 µM
TGI (MDA-N): > 100 µM
TGI (MALME-3M melanoma): > 100 µM
TGI (HOP-62 NSCLC): > 100 µM
TGI (SN12C renal): > 100 µM
TGI (NCI-H226 lung): > 100 µM
TGI (HS 578T breast): > 100 µM
TGI (SF-539 CNS): > 100 µM
TGI (A498 renal): > 100 µM
TGI (LOX IMVI melanoma): > 100 µM
TGI (SNB-19 CNS): > 100 µM

O=S(Nc1ccccc1)c1ccccc1Oc1ccccc1 (stereo not given)
TGI (HCC-2998 colon): 87.1 µM
TGI (NCI/ADR-RES ovarian): > 100 µM
TGI (RPMI-8226 leukemia): > 100 µM
TGI (U251 CNS): > 100 µM
TGI (OVCAR-3 ovarian): > 100 µM
TGI (IGROV1 ovarian): 12.6 µM
TGI (SK-MEL-28 melanoma): > 100 µM
TGI (ACHN renal): > 100 µM
TGI (SF-268 CNS): 62 µM
TGI (MDA-N): > 100 µM
TGI (RXF 393 renal): > 100 µM
TGI (MALME-3M melanoma): > 100 µM
TGI (HOP-62 NSCLC): > 100 µM
TGI (SN12C renal): > 100 µM
TGI (NCI-H226 lung): > 100 µM
TGI (HS 578T breast): 19.6 µM
TGI (SF-539 CNS): 35.6 µM
TGI (LOX IMVI melanoma): > 100 µM
TGI (SNB-19 CNS): > 100 µM
